Data from PMC4526861, “Inhibition of protein kinase C by isojacareubin suppresses hepatocellular carcinoma metastasis and induces apoptosis in vitro and in vivo” (Scientific Reports, 2015).

Legend:
[1] = test system: phosphorylated c-Raf, MEK1/2 and ERK1/2; assay: Western blot of MAPK phosphorylation, HepG2; type: cell-based, human; settings: HepG2, 24 h
Experimental: (§1) Additional PKC targeting effects involved in the early response of major MAPK phosphorylation and the late response of HCC cell invasion and apoptosis were investigated. After 24 h of treatment with ISJ at the indicated concentrations, the total protein lysates from HCC cells were analyzed (Fig. 6). ISJ inhibited the phosphorylated, activated forms of c-Raf, MEK1/2 and ERK1/2 in the MAPK signaling pathway in both HepG2 and QGY-7703 cells (Fig. 6a). […] In contrast, E-cadherin expression was elevated, specifically at the highest concentration of ISJ (20 μM) (Fig. 6b). In addition, we analyzed several representative apoptotic proteins, including cleaved PARP (c-PARP), p53 and p21. […] These findings support our hypothesis that ISJ restrains HCC cell metastasis and induces HCC cell apoptosis by specifically inhibiting PKC.
(§2) The total membrane and cytosolic proteins were extracted using a Membrane and Cytosol Protein Extraction Kit (Beyotime). Extracted proteins from cells or animal tissues were separated by SDS-PAGE and transferred to polyvinylidene difluoride (PVDF) membranes (Bio-Rad). The PVDF membranes were blocked with 5% nonfat milk and incubated with primary antibodies overnight, followed by incubation with a donkey anti-rabbit or anti-mouse secondary antibody (IRDye 800, LI-COR, Biosciences). […] The intensity was quantitative with Quantity One software (Bio-Rad). […]

[2] = test system: MMP-9, FGFR-1, E-cadherin; assay: Western blot of invasion-related proteins, HepG2; type: cell-based, human; settings: HepG2, 24 h
Experimental: as §1, §2

[3] = Body weight in xenograft study; type: in vivo, BALB/c-nu nude mice; settings: 5 mg/kg, tail vein, two weeks
Experimental: HepG2 cells were harvested and resuspended in PBS. A total of 5 × 10^6 cells were subcutaneously injected into the right flank. Tumor volume was calculated using the following formula: V = (L × W^2)/2, where L is the length and W is the width of the tumor nodules measured with vernier calipers. Once the volume of the tumors reached 75–100 mm^3, the mice were randomly divided into three groups (n = 5). The mice were treated every other day for two weeks with tail vein injections of either vehicle (5% ethanol and 2.5% polyethylene glycol in saline), compound 7, or ISJ (5 mg/kg in the vehicle). Body weights were measured before each drug injection. After the 15th day, the mice were euthanized, and the tumors were isolated, weighed and photographed.

## Isojacareubin [ISJ]
[1]
  phosphorylated, activated forms of c-Raf, MEK1/2 and ERK1/2: inhibited
[2]
  expression levels of MMP-9 and FGFR-1: markedly reduced
[2]; specifically at 20 μM
  E-cadherin expression: elevated
[3]
  change in body weight compared to vehicle-treated controls: no significant change
